The values that follow are results of earlier work, collected in patent publication US20030004141A1, “Medical devices, compositions and methods for treating vulnerable plaque” (priority 2001, published 2003).

The conditions of this series: general statement from cited pre-clinical and clinical studies.

Turning to `CNC(=O)[C@@H](NC(=O)[C@H](CC(C)C)[C@H](O)C(=O)NO)C(C)(C)C` [marimastat], the in vivo toxicity entry is “minimal in vivo toxicity”.
